Data on two compounds can be found in PMC12677652, “Procyanidin B3 and Its Derivatives Alleviate Neuronal Injury by Targeting G3BP1 for Ischemic Stroke Therapy” (Advanced Science, 2025).

One data set deals with T1, G3BP1 (Mus musculus, UniProt P97855).
T1 construct: endogenous in cells; host or cells: HT22 cell lysate
The data set can be described thus: Cellular thermal shift assay. The class given is binding. The settings on record: HT22 cell lysate. On the procedure:
HT22 cells were grown to 90% confluency and harvested by trypsin and resuspended in 1 mL PBS. The samples were subjected to three freeze–thaw cycles in liquid nitrogen. Each cell lysate was centrifuged (12000 g for 30 min at 4 °C), and the supernatant was collected. The supernatants were treated with PB3 (or PBS control) for 20 min. Subsequently, they were aliquoted into Eppendorf tubes and heated for 3 min to 44, 48, 52, 56, or 60 °C. The soluble fractions were analyzed by SDS‐polyacrylamide gel electrophoresis and immunoblotted with anti‐G3BP1 antibody.

The subject of data set [1] is Primary rat cortical neurons. The data set is described as follows: Cytotoxicity (50% cytotoxic concentration) by CCK-8 assay. Type of data set: cell-based. The note with it: 24 h exposure. On the procedure:
Additionally, we investigated the effects of PB3, 6c, and EDA on apoptosis at a concentration of 50 µM. […] Therefore, the improvement in target accessibility could be one of the main reasons for the enhanced activity of 6c. The binding mode of 6c and the NTF2L domain of G3BP1 was analyzed by molecular docking (Figure S10B, Supporting Information). […] Cytotoxicities of 1 and 6c were determined by the detection of 50% cytotoxic concentration using the CCK‐8 assay. Primary rat cortical neurons ^[ [10] ^] were exposed to 200 µM gradient concentrations of compounds for 24 h.
For orientation: Formazan colour is commonly taken as a measure of viable cells.

The subject of a further data set is G3BP1‐bound mRNA. The data set is described as follows: RIP assay with RT-qPCR of G3BP1-bound mRNAs. Type of data set: cell-based. The settings on record: 50 µM, 6 h of reperfusion following OGD. On the procedure:
(§1) Total RNA from HT22 cells was extracted with Trizol. The concentration and purity of RNA were determined by Nanodrop (Thermo Scientific, USA), and RNA was reverse transcribed by PrimeScript Reverse Transcription Master Mix (TaKaRa, Japan). Then RT‐qPCR was performed using Hieff qPCR SYBR Green Master Mix (Yeasen, China). The expression level of the transcripts was normalized to the constitutive expression level of β‐actin. The primers used for amplification are listed in Table S4 (Supporting Information).
RIP assay was performed with the BeyoRIP RIP Assay Kit (Beyotime, China) using the manufacturer's protocol. HT22 cells were washed with PBS and centrifuged, then the cell was resuspended in complete lysis buffer. 3–5 µg antibody was pre‐bound to protein A/G agarose beads in NT2 wash buffer for 0.5 h and then incubated with 270 µL cell lysates for 4 h at 4 °C with rotation, and RNA was eluted from the beads by incubating with 100 µL elution buffer for 0.5 h at 55 °C. The eluted RNA was dissolved with RNase‐free water. Enrichment of certain fragments was determined by RT‐qPCR.

Data set [2] has as its system eIF2α phosphatases (GADD34 and PPP1R15B/CReP) and eIF2α kinases (PERK and GCN2). The data set is described as follows: RT-qPCR of key factors regulating SG dynamics. Type of data set: cell-based. The settings on record: 50 µM, 6 h of reperfusion following OGD, HT22 cells. The method, then:
as §1
(In general: Real-time PCR tracks product formation cycle by cycle.)

The test system of another data set is tMCAO mice. The data set is described as follows: tMCAO model in mice (neurological deficit score, infarct volume, apoptosis, SG level). The class given is in vivo. The note with it: for SG levels in the ischemic cortex / ischemic brain tissue: 48 mg kg^−1, i.p. The method, then:
Mice were kept anesthetized during surgery with 1% pentobarbital sodium (50 mg kg^−1, Sigma‐Aldrich, USA) by i.p. injection. Transient ischemia was induced by using the suture occlusion technique according to our previous studies.^[ [10] ^] Expose the common carotid artery area, insert a 6–0 sized silicon rubber‐coated filament into the left internal carotid artery until it reaches the approximate branch of the left middle cerebral artery, and leave it for 1–1.5 h to block blood flow. Then, the suture and the filament were removed, and the wounds were sutured. 24 h after the operation, a series of phenotypic evaluations was conducted on each mouse. The Bederson score was applied according to our previous studies.^[ [10] ^]
Apoptosis level was evaluated by TUNEL staining and flow cytometry. For TUNEL staining, HT22 cells were treated with 4% paraformaldehyde for 15 min. Then the fixed brain tissue slices and HT22 cells were permeabilized for 5 min using 1% Triton X‐100 (Sigma‐Aldrich, USA) dissolved in PBS. TUNEL staining was executed by following the instructions, using a one‐step TUNEL apoptosis assay kit (Meilunbio, China). Red fluorescence was utilized to identify apoptotic cells, while 4′, 6‐diamidino‐2‐phenylindole (DAPI) was used to counterstain the nuclei. The fluorescence microscope (Carl Zeiss, Germany) was used to obtain images. For flow cytometry, apoptotic cells were determined with the Annexin V‐Alexa Fluor 488/PI apoptosis detection kit (Yeasen, China) by following the instructions. EDTA‐free trypsin (Gibco, USA) was added to HT22 cells (2.5 × 10^5 cells). The cells were collected and washed with pre‐cooling PBS 2 times, then suspended in 250 µL 1× binding buffer. 100 µL cell suspension was dyed with 5 µL Annexin V‐Alexa Fluor 488 and 10 µL PI and plunged into darkness at room temperature for 15 min. Then the cell suspension was mixed with 400 µL of 1× binding buffer. Cell apoptosis was immediately determined by Cytek Aurora (Cytek Biosciences, USA).
Cells and tissues were homogenized in RIPA buffer (Beyotime, China) containing protease inhibitors (Biovision, USA) on ice for 30 min. After centrifugation (13000 r min^−1, 4 °C) for 10 min, the resulting supernatant was collected. The protein concentrations were determined by a BCA protein assay kit (Thermo Scientific, USA). After separating a 10% sodium dodecyl sulfate (SDS)‐polyacrylamide gel, protein on the gel was then transferred onto nitrocellulose membranes (Merck, USA), which were blocked with 5% bovine serum albumin for 1 h to prevent non‐specific binding. Then, the anti‐caspase 3 antibody (catalog no. 9662, Cell Signaling Technology, USA), anti‐Bcl‐2 antibody (catalog no. GTX100064, GeneTex, USA), anti‐G3BP1 antibody (catalog no. 66486‐1‐Ig, Proteintech, China), anti‐β‐tubulin antibody (catalog no. 66240‐1‐Ig, Proteintech, China), and anti‐β‐actin antibody (catalog no. 66009‐1‐Ig, Proteintech, China) were used for treating the membrane overnight at 4 °C. Bound antibodies were detected with the species‐appropriate horseradish peroxidase‐labeled secondary antibody (Jackson ImmunoResearch, USA) using ECL reagents (ShareBio, China). Protein‐specific signals were detected using a Bio‐Rad Imager (Bio‐Rad, USA), and the bands were quantified by densitometric analysis software (ImageJ). β‐tubulin or β‐actin was used as a loading control.
Cerebral infarction volume was evaluated by Nissl staining or 2,3,5‐triphenyltetrazolium chloride staining. The infarct volume was computed using image‐processing software (Image J), and the percentage of the infarct volume was calculated according to our previous studies.^[ [10] ^] For Nissl staining, the fixed brain tissue slices were washed twice with ultrapure water for 2 min each time. Next, they were stained with Nissl staining solution (Beyotime, China) at 37 °C for 10 min, washed twice with ultrapure water, washed once with 95% ethanol, and washed twice with 70% ethanol. […]

The mark [3] stands for this setting: 48 mg kg^−1 i.p., compared to the model group.

T1 sequence (P97855 whole entry): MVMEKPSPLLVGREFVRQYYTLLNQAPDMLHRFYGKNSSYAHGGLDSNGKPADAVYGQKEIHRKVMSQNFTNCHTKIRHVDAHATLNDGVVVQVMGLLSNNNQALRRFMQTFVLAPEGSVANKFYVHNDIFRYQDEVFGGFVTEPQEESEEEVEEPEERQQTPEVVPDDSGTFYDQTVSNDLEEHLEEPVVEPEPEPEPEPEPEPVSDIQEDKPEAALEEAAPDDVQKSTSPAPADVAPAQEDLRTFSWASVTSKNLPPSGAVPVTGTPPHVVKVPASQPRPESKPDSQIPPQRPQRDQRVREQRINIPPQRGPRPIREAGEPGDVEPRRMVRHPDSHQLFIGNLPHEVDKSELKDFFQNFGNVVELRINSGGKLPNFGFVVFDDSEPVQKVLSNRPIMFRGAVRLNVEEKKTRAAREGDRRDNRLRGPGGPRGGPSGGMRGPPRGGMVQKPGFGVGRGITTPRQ

For `Oc1cc(O)c2c(c1)O[C@H](c1ccc(O)c(O)c1)[C@@H](O)[C@@H]2c1c(O)cc(O)c2c1O[C@H](c1ccc(O)c(O)c1)[C@@H](O)C2` [Compound 1, procyanidin B3], at G3BP1, the “thermal stability of G3BP1” value is reported as “enhanced the thermal stability of G3BP1”. In addition, in data set [1], the 50% cytotoxic concentration entry was “over 200 µM”. Further, in the data set on G3BP1‐bound mRNA, the “level of G3BP1‐bound mRNA” value is “higher”. In data set [2], the “expression of eIF2α phosphatases (GADD34 and PPP1R15B/CReP)” value is “significantly lower”; the “expression of two eIF2α kinases (PERK and GCN2)” value is recorded as “significantly higher”. For the same compound, the “SG levels in the ischemic cortex / ischemic brain tissue” value in the data set with tMCAO mice is reported as “significantly enhanced SG levels”. In addition, in the data set with tMCAO mice (48 mg kg^−1 i.p., 1.5 h MCAO, 24 h after reperfusion), the neurological deficit score entry was “improved neurological deficits”. The infarct volume result in the data set on tMCAO mice (48 mg kg^−1 i.p., 1.5 h MCAO, 24 h reperfusion, Nissl staining) is given as “significantly reduced”. Further, in the data set on tMCAO mice (setting [3]), the “apoptosis level (TUNEL staining of frozen brain sections)” value is “significantly reduced”, the “expression level of Bcl‐2 in the ischemic cortex” value is reported as “increased” and the “expression level of cleaved caspase‐3 in the ischemic cortex” value is listed as “decreased”.

As for `CC(C)c1c(O)cc(O)c2c1O[C@H](c1ccc(O)c(O)c1)[C@@H](O)[C@@H]2c1c(O)cc(O)c2c1O[C@H](c1ccc(O)c(O)c1)[C@@H](O)C2` [Compound 6c, 8‐Isopropyl‐(+)‐Catechin‐(4α,8)‐(+)‐Catechin], in data set [1], the 50% cytotoxic concentration entry is “over 200 µM”. Also, in the data set with tMCAO mice, the “SG levels in the ischemic cortex / ischemic brain tissue” value is “mediate SG upregulation”. Besides, the “neuroprotective activity compared with the model group” value with tMCAO mice (48 mg kg^−1, 1.5 h of MCAO and 24 h of reperfusion) is “best neuroprotective activity”. In the data set with tMCAO mice (1 h ischemia, i.p. injection after reperfusion, 24 h after reperfusion), the “reduction of infarct volume” value was “≈ 30%”. The neurological deficit score result in the data set on tMCAO mice (1 h ischemia, i.p. injection after reperfusion, 24 h after reperfusion, preliminary screening) is reported as “more pronounced trend toward improving neurological deficits”. For the same compound, in the data set with tMCAO mice (1.5 h of MCAO and 24 h of reperfusion), the “infarct area and neurological function at different doses” value is recorded as “therapeutic effect on ischemic injury in a dose‐dependent manner”.
